The values below come from PMC3391414 (Journal of Agricultural and Food Chemistry, 2011).

Several values for one entry are separate records, joined by “and”; a condition that tells them apart may be missing. Equal entries are not always repeated. Entries after “also recorded” stand apart in the source; their conditions may differ. Where two headings read alike, the source gives them in different places.

For data set [1] the following is noted: cited from earlier work.
Another data set deals with T1, UGT1A3 (Homo sapiens, UniProt P35503).
T1 sequence (P35503 29-534): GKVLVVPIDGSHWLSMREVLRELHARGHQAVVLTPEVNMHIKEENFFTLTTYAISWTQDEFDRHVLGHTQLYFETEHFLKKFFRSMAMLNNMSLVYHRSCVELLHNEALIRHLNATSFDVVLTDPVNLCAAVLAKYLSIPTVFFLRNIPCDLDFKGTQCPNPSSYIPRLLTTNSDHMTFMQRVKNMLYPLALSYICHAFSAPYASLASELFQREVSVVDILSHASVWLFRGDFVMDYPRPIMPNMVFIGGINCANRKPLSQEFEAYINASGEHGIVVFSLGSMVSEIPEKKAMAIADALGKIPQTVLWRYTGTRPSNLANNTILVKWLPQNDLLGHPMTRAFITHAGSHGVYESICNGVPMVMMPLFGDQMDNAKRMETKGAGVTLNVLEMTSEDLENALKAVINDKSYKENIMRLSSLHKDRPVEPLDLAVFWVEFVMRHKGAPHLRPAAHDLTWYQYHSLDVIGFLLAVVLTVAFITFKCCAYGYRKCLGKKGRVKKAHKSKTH
Kind of data set: Glucuronidation by recombinant human UGT1A3.

Data set [2] deals with T2, UGT1A6 (Homo sapiens, UniProt P19224).
T2 sequence (P19224 27-532): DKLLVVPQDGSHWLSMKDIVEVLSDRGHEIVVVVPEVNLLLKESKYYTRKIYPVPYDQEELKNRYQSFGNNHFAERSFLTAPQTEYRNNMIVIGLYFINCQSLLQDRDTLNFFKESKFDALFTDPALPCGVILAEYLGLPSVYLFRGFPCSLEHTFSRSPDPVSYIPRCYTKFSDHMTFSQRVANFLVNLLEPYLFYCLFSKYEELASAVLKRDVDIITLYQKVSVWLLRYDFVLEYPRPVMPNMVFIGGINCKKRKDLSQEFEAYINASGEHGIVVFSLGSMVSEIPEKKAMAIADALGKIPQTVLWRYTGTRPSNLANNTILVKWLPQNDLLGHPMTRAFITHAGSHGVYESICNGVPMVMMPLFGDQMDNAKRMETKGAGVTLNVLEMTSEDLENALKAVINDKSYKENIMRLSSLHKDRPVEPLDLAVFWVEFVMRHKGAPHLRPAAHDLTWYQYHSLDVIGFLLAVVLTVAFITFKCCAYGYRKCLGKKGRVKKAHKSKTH
As to the kind of experiment: Glucuronidation by recombinant human UGT1A6. Particulars: UGT1A6, substrate 10 μM.

Data set [3] deals with T3, UGT1A8 (Homo sapiens, UniProt Q9HAW9).
T3 sequence (Q9HAW9 26-530): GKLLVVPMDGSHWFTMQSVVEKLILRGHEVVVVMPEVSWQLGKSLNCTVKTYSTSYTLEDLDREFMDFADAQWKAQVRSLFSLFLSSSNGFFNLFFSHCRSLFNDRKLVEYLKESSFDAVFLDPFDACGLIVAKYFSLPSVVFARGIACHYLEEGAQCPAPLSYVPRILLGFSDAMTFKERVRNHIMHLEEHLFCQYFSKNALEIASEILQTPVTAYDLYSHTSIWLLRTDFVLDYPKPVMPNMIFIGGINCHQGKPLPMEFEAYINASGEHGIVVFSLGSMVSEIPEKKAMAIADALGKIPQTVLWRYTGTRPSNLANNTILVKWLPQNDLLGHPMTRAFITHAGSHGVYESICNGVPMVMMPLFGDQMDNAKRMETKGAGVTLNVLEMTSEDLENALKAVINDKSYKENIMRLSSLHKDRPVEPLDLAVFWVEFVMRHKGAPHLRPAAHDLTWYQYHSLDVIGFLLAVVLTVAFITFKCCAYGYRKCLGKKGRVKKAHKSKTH
Kind of data set: Glucuronidation by recombinant human UGT1A8.

Data set [4] has as its target T2, UGT1A6. The following applies: 10 μM, pH 7.4.
Data set [5] deals with T3, UGT1A8. The following applies: 10 μM, pH 7.4.
The target of another data set is T4, UGT1A9 (Homo sapiens, UniProt O60656).
T4 sequence (O60656 26-530): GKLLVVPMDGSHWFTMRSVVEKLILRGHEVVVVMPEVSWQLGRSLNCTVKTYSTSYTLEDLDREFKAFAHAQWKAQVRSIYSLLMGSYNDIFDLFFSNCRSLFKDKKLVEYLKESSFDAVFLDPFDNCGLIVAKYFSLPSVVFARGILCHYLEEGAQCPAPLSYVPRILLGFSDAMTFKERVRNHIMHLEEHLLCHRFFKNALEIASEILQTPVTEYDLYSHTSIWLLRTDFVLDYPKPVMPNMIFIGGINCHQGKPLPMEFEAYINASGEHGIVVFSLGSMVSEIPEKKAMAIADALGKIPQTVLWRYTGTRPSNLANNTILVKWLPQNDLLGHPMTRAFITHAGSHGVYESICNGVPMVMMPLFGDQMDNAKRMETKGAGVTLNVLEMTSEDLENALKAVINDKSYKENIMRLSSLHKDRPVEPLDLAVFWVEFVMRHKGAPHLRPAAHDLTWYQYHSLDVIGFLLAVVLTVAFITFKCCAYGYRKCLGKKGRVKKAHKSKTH
The following applies: pH 7.4.

Another data set deals with T5, UGT2B7 (Homo sapiens, UniProt P16662).
T5 sequence (P16662 24-529): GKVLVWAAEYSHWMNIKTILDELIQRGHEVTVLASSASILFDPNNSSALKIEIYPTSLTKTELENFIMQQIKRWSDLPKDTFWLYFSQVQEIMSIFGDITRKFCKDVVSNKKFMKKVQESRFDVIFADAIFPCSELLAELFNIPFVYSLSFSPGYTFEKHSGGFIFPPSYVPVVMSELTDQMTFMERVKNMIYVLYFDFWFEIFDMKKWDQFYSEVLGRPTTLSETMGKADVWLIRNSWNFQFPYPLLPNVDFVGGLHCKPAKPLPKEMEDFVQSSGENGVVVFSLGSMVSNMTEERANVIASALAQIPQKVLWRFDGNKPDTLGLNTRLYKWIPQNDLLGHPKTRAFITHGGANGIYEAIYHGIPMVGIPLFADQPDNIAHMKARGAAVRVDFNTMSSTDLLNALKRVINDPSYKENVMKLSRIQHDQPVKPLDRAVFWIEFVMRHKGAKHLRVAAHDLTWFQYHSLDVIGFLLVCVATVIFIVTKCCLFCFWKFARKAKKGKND
Particulars: 10 μM, pH 7.4.

`O=c1c(O)c(-c2ccc(O)cc2)oc2cc(O)cc(O)c12` [5,7,4'THFnol, 3,5,7,4’-tetrahydroxyflavone]: the “Predominant form in plasma” value in data set [1] (after oral intake in human) is 3-O-glucuronide of kaempferol was found to be the predominant form in plasma. Also, the “Degree of regiospecificity (major glucuronide in bracket)” value at UGT1A3 (UGT1A3, substrate 2.5 μM) was “No (3-O, 7-O)”; on UGT1A3 (UGT1A3, substrate 10 μM) it was “No (3-O, 7-O)”; on UGT1A3 (UGT1A3, substrate 10 μM, listed as 5,7,4’THFnol), “no regiospecific preference between 3-O and 7-O; also recorded: did not show dominant regiospecificity for 7-O position”. The Hydroxyl positions glucuronidated entry on UGT1A3 (UGT1A3, substrate 10 μM) is “glucuronidated 3-O, 7-O and 4’-O”; at UGT1A6 [2], “glucuronidated only 7-O and 4’-O”; on UGT1A8 [3] (UGT1A8, substrate 10 μM) it was “glucuronidated 3-O, 7-O and 4’-O”. In addition, the “Degree of regiospecificity (3-O vs 7-O)” value at UGT1A8 [3] (UGT1A8, substrate 35 μM) is “weak regiospecificity and 7-O was the preferred position”.

Take `O=c1cc(-c2ccccc2)oc2cc(O)cc(O)c12` [5,7DHF, 5,7-dihydroxyflavone]: the Hydroxyl positions glucuronidated entry is “glucuronidated both 7-O and 5-O positions” on UGT1A6 [4]; “glucuronidated 7-O position only” at UGT1A8 [5]; “glucuronidated 7-O position only” on UGT1A9 (10 μM); “glucuronidated both 7-O and 5-O positions” at UGT2B7. The “Degree of regiospecificity (major glucuronide in bracket)” value on UGT1A9 (2.5 μM) is on record as “Dominant (7-O)”. The Glucuronide predominantly formed result in data set [1] (human volunteers) is “predominantly form 7-O-glucuronide”.
